Assay results reported in the supplement of paper PMC11451515.

How the values were obtained:
Assay in all cases: AUC of viability dose-response curve (% viability x log10 dose units); higher = less sensitive
Conditions in all cases: 48 h
P12-Ichikawa = tested on: P12-Ichikawa
How it was run: (§1)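 Medium-adapted leukemia cells in 1536-well plates, at 500 or 1000 cells/well, were incubated for 48 h at 37°C with library compounds in DMSO at 11 threefold doses from 47 μM to 0.79 nM. CellTiter-Glo One luminescence normalised per plate to DMSO and cell-free wells was fitted with a four-parameter log-logistic model over log10 doses. Area under the curve was integrated from this fit by trapezoidal rule, with curves beyond full viability scaled and failed quality-control curves removed.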

SEM cells = tested on: SEM cells
How it was run: as §1

NOMO1 = tested on: NOMO1
How it was run: as §1

[1] = RPMI 5 mM glucose + 10% dialyzed FBS

SMILES | AUC of viability dose-response curve (P12-Ichikawa; HPLM + 10% dialyzed FBS) | AUC of viability dose-response curve (P12-Ichikawa; RPMI 5 mM glucose + 10% FBS) | AUC of viability dose-response curve (P12-Ichikawa; [1]) | AUC of viability dose-response curve (SEM cells; HPLM + 10% dialyzed FBS) | AUC of viability dose-response curve (SEM cells; RPMI 5 mM glucose + 10% FBS) | AUC of viability dose-response curve (SEM cells; [1]) | AUC of viability dose-response curve (NOMO1; HPLM + 10% dialyzed FBS) | AUC of viability dose-response curve (NOMO1; RPMI 5 mM glucose + 10% FBS) | AUC of viability dose-response curve (NOMO1; [1])
CCOC1=CC(=CC=C1C/2=N/[C@@](C)(C3=CC=C(Cl)C=C3)[C@](C)(N2C(=O)N4CCN(CC4)CC(=O)N5CCOCC5)C6=CC=C(Cl)C=C6)C(C)(C)C | 465 | 461 | 443 | 436 | 432 | 439 |  |  | 
CC(=O)[C@H]1CC[C@H]2[C@@H]3CCC4=CC(=O)CC[C@]4(C)[C@H]3CC[C@]12C | 465 | 455 | 465 | 432 | 470 | 456 | 454 | 447 | 433
COc1cc(OC)c(NC(=O)Nc2cc(C)on2)cc1Cl | 463 | 465 | 463 | 467 | 397 | 453 | 464 | 442 | 417
O=C1CCc2ccc(OCCCCN3CCN(c4cccc(Cl)c4Cl)CC3)cc2N1 | 473 | 471 | 449 |  |  |  | 449 | 433 | 438
CCN(CC)CCN1C(=O)\C(=N/C2=CC=CC=C12)CC3=CC=C(OC)C=C3 | 470 | 465 | 460 |  |  |  | 472 | 474 | 468
CCCCN(CCCC)C(=O)CN1C[C@H](c2ccc3c(c2)OCO3)[C@@H](C(=O)O)[C@@H]1c1ccc(OC)cc1 |  |  |  | 408 | 427 | 432 | 457 | 470 | 464
OC(COC1=C2C(=O)\C=C(/OC2=CC=C1)C([O-])=O)COC3=C4C(=O)\C=C(/OC4=CC=C3)C([O-])=O |  |  |  |  |  |  | 435 | 368 | 394
COc1cc([C@@H]2c3cc4c(cc3[C@@H](O[C@@H]3O[C@@H]5CO[C@@H](c6cccs6)O[C@H]5[C@H](O)[C@H]3O)[C@H]3COC(=O)[C@H]23)OCO4)cc(OC)c1O |  |  |  | 329 | 319 | 284 |  |  | 
NCC(=O)Nc1ccc(-n2nc(C(F)(F)F)cc2-c2ccc3c(ccc4ccccc43)c2)cc1 |  |  |  | 460 | 457 | 424 | 458 | 462 | 447
CC1(C)CC(O)CC(C)(C)N1[O] | 464 | 459 | 459 |  |  |  | 452 | 472 | 472
Cc1ccc(-c2ncn(-c3ccc(Nc4nccc(-c5cccc(N6CCOCC6)c5)n4)cc3)n2)cn1 | 259 | 244 | 235 | 229 | 226 | 217 |  |  | 
O=C(CCc1ccc(O)cc1)c1c(O)cc(O)cc1O[C@@H]1O[C@H](CO)[C@@H](O)[C@H](O)[C@H]1O | 428 | 405 | 408 | 454 | 426 | 412 |  |  | 
